{"source": "patent US20060029548A1", "about": "“Methods of diagnosing, monitoring and treating pulmonary diseases” (priority 2004, published 2006)", "key": {"[1]": {"tested_on": "pulmonary RAR-containing afferent nerve fiber", "test": "Vagal activation experiments in dogs: action potentials in RAR-containing fibers", "type": "in vivo", "conditions": "anesthetized dog", "experimental": "(§1) The experiments described in Example 5 were performed essentially as described in Pelleg et al. [(1996) J. Physiol. 490(1):265-275] and U.S. Pat. No. 5,874,420, both of which are incorporated herein by reference in their entirety. In brief, they were performed on anesthetized (sodium pentobarbitone, 30 mg kg^−1 plus 3 mg kg^−1 h^−1, intravenous) dogs artificially ventilated with room air using a respirator. Arterial blood pH, PO2, PCO2, body temperature were maintained as described in U.S. Pat. No. 5,874,420. A peripheral vein was cannulated for the administration of physiological saline solution and maintenance doses of anesthetic. Catheters were introduced via the femoral vein and left atrial appendage and positioned in the right atrium and left atrium for the administration of test solutions. The chest was opened by a longitudinal sternotomy. The right cervical vagosympathetic trunk was exposed by a midcervical longitudinal section of the skin and careful dissection of neck muscles and connective tissues. The edges of the cut skin were elevated and secured to create a trough which was filled with warm (about 37° C.) mineral oil. A section of the vagosympathetic trunk was placed on a small plate of black Perspex™ and fine branches were separated from the main bundle by careful dissection using microsurgical tools and a dissecting microscope (Model F212, Jenopik Jena, GmbH, Germany).\nExtracellular neural action potentials were recorded using a custom-made bipolar electrode that contained two platinum-iridium wires (1.25 cm×0.0125 cm) connected to a high-impedence first-stage differential amplifier (model AC8331, CW, Inc., Ardmore, Pa.) via a shielded cable. The output of the first-stage amplifier was fed into a second-stage differential amplifier (model BMA-831/C, CWE, Inc.). Isolated fibers were laid on the pair of platinum-iridium wires. Vagal C fibers with chemosensitive endings have a sparse irregular discharge which is not associated with cardiac or respiratory cycles. Confirmation of fiber type was obtained by: first monitoring the response to capsaicin (10 microg kg^−1, intra-right atrial bolus); second, monitoring the response to mechanical stimulation of the lungs using gentle probing with forceps as well as inflation of the lungs to 2-3 times the tidal volume; and third, determining the speed of conduction using a stimulating electrode positioned distal to the initial recording site. Nerve fibers with RAR on their pulmonary endings, spontaneously fire a brief (i.e., short lasting) volley of action potentials associated with peak tracheal pressure during each respiratory cycle.\n[…] Volume controls consisted of either 5 ml+5 ml or 1 ml+3 ml physiological saline. All injections were performed in the same mode by the same person. To exclude involvement of baroreceptors in the recorded neural activity, the latter was monitored before and after a bolus of nitroglycerine (1 mg; intravenous).\nThe procedure described in Example 1 was used to measure action potentials in dog pulmonary fibers with RAR on their terminals following administration of various agents. RAR activation generated a brief volley of action potentials associated with each respiratory cycle that was seen before as well as after administration of ATP (FIG. 7). […] Thus ATP modified the activity of the RAR-containing fiber manifested in their transient loss of the rapid adaptability characteristic."}, "vagal C fiber": {"tested_on": "vagal C fiber", "test": "Vagal activation experiments in dogs: action potentials in vagal C fibers", "type": "in vivo", "conditions": "anesthetized dog, rapid bolus; simultaneous recording with RAR-containing fiber", "experimental": "as §1\nExtracellular neural action potentials were recorded using a custom-made bipolar electrode that contained two platinum-iridium wires (1.25 cm×0.0125 cm) connected to a high-impedence first-stage differential amplifier (model AC8331, CW, Inc., Ardmore, Pa.) via a shielded cable. The output of the first-stage amplifier was fed into a second-stage differential amplifier (model BMA-831/C, CWE, Inc.). Isolated fibers were laid on the pair of platinum-iridium wires. Vagal C fibers with chemosensitive endings have a sparse irregular discharge which is not associated with cardiac or respiratory cycles. […]\nATP (3 umole kg^−1) and capsaicin (10 ug kg^−1) were administered as a rapid bolus into the right atrium (5 ml test solution+5 ml physiological saline flush). α,βmATP and β,γmATP were given as one low dose only (0.75 umol kg^−1) to avoid systemic side effects. […] To exclude involvement of baroreceptors in the recorded neural activity, the latter was monitored before and after a bolus of nitroglycerine (1 mg; intravenous). […]"}}, "note": "“Also recorded” adds a separate entry of the source.", "data": [{"smiles": "Nc1ncnc2c1ncn2[C@@H]1O[C@H](COP(=O)(O)OP(=O)(O)OP(=O)(O)O)[C@@H](O)[C@H]1O", "note": "[ATP, adenosine 5′-triphosphate]", "values": [{"measurement": "desensitization on repeated administrations", "setting": "[1]; RAR-containing fibers", "value": "not associated with desensitization"}, {"measurement": "effect on action potentials of RAR-containing fibers", "setting": "[1]; rapid bolus, ATP 6 μmol/kg, capsaicin 10 ug kg−1, analogs 0.75 umol kg−1", "value": "activity of RAR-containing fibers was prolonged; also recorded: stimulated both the C fibers and RAR-containing fibers"}, {"measurement": "effect on action potentials of C fibers", "setting": "vagal C fiber", "value": "stimulated both the C fibers and RAR-containing fibers"}]}]}
